According to ChEMBL document CHEMBL3991601, “The target landscape of clinical kinase drugs” (Science, 2017):
Activity calls are given as the source filed them. For most assays here, no stated cut-off is given here; in the data, actives have a measured Kd and inactives only a lower limit.

Assays:
[1] = biological target: T1, Serine/threonine-protein kinase TBK1 (Homo sapiens, UniProt Q9UHD2)
T1 sequence (Q9UHD2 whole entry): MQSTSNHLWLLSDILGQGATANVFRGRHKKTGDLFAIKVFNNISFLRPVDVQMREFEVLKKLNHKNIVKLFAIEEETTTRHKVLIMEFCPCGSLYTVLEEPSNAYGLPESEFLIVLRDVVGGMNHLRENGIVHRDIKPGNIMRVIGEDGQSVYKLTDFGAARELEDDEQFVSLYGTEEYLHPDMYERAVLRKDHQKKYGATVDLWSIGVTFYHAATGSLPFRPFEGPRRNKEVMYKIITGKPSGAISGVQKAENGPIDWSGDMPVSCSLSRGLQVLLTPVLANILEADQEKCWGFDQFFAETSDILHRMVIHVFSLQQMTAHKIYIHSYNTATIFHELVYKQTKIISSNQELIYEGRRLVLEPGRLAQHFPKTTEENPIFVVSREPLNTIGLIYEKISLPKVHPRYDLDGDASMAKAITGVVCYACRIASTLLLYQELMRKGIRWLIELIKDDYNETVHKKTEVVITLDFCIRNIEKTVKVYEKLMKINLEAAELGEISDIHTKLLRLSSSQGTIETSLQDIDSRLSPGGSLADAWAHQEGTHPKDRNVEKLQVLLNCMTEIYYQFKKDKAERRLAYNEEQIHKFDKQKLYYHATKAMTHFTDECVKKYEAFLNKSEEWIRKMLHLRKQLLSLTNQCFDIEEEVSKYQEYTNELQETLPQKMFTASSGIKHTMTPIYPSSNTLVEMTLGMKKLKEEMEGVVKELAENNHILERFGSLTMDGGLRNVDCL

[2] = biological target: 26S proteasome regulatory subunit 6B (Homo sapiens, UniProt P43686)
[3] = biological target: T2, NUAK family SNF1-like kinase 2 (Homo sapiens, UniProt Q9H093)
T2 sequence (Q9H093 whole entry): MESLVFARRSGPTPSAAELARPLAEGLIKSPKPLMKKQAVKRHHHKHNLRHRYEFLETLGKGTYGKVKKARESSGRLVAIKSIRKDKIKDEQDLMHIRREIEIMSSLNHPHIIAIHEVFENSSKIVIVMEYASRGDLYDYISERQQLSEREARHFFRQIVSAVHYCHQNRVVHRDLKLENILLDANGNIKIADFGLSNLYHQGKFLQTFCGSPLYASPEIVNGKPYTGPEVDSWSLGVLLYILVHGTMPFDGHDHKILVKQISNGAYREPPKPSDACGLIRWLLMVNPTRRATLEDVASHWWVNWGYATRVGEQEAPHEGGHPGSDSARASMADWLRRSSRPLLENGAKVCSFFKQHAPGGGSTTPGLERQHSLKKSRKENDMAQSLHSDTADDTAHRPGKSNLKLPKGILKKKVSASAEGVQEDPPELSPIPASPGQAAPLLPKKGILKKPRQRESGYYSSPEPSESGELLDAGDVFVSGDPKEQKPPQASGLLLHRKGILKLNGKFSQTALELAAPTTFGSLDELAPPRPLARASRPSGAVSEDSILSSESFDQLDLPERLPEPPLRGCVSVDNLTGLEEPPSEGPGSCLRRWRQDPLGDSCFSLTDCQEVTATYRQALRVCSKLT

[4] = biological target: T3, Mitogen-activated protein kinase kinase kinase kinase 2 (Homo sapiens, UniProt Q12851)
T3 sequence (Q12851 whole entry): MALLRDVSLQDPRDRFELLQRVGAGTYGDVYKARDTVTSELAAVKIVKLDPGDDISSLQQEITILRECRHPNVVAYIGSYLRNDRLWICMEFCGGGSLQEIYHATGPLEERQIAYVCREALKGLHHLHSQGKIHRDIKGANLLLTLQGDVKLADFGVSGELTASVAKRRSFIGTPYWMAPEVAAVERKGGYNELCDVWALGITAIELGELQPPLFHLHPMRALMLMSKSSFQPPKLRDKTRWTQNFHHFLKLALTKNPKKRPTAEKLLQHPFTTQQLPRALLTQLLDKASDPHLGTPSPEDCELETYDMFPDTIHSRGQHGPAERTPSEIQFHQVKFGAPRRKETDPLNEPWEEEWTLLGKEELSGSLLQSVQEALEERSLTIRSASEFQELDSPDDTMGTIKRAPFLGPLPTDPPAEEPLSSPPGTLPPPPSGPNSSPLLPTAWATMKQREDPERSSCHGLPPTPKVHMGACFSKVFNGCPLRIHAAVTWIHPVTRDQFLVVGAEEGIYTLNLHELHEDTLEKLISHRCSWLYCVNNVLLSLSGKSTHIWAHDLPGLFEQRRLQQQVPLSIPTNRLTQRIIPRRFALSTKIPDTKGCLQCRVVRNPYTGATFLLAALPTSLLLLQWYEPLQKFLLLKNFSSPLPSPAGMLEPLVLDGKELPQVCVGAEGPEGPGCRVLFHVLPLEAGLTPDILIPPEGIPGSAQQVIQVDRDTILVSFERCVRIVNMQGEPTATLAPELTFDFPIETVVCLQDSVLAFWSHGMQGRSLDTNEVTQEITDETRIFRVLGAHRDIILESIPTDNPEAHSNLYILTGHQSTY

[5] = biological target: Macrophage-stimulating protein receptor (Homo sapiens, UniProt Q04912)
[6] = biological target: Receptor-interacting serine/threonine-protein kinase 2 (Homo sapiens, UniProt O43353)
[7] = biological target: Mitogen-activated protein kinase kinase kinase kinase 5 (Homo sapiens, UniProt Q9Y4K4)
Mitogen-activated protein kinase kinase kinase kinase 5, sequence (Q9Y4K4 whole entry): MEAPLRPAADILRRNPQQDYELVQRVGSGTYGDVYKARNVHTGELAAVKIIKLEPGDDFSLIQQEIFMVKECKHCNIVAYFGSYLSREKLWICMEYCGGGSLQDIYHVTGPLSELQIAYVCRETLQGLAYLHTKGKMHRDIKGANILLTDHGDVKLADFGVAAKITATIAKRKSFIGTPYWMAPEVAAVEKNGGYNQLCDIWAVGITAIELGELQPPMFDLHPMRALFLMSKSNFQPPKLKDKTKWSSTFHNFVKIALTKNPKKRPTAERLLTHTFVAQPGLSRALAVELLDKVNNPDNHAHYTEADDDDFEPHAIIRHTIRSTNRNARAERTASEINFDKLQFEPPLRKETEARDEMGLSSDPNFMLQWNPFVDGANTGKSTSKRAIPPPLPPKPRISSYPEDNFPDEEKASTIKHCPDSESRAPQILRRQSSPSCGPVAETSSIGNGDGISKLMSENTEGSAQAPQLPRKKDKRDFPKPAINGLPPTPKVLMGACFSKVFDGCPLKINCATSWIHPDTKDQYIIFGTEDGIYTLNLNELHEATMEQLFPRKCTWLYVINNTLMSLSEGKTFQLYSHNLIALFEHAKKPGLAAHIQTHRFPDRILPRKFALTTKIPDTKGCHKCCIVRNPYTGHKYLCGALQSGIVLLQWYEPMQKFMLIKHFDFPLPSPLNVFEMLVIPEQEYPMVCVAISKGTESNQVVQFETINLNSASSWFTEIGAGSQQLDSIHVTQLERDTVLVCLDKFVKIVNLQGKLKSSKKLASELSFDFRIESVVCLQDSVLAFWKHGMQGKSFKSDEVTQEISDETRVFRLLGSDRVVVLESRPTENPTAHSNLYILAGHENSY

26S proteasome regulatory subunit 6B, sequence (P43686 whole entry): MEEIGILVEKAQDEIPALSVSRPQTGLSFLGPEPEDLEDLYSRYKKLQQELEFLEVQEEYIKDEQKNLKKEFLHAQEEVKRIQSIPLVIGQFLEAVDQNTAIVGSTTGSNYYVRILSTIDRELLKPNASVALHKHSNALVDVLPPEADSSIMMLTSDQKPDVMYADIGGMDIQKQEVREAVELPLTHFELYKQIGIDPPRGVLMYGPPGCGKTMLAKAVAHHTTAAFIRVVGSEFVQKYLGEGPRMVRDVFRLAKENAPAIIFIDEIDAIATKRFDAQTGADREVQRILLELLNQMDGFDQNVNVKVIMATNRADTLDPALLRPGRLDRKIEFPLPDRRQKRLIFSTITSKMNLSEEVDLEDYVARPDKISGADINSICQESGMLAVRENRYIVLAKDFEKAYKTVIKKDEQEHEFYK
Receptor-interacting serine/threonine-protein kinase 2, sequence (O43353 whole entry): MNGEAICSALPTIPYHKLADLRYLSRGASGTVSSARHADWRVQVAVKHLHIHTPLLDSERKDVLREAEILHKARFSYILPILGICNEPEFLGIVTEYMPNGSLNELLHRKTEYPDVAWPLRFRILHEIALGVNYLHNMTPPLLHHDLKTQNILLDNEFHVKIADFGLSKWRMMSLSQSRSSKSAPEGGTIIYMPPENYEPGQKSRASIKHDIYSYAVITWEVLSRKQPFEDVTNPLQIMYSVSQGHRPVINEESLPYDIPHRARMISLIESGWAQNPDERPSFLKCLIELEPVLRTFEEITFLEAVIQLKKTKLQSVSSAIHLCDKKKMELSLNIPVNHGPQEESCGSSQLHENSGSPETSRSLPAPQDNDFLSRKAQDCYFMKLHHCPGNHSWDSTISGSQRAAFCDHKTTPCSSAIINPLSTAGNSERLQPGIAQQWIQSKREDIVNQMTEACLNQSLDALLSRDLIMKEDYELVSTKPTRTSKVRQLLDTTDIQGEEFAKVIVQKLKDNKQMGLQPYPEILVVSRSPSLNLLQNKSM
Macrophage-stimulating protein receptor, sequence (Q04912 25-304 limits assumed): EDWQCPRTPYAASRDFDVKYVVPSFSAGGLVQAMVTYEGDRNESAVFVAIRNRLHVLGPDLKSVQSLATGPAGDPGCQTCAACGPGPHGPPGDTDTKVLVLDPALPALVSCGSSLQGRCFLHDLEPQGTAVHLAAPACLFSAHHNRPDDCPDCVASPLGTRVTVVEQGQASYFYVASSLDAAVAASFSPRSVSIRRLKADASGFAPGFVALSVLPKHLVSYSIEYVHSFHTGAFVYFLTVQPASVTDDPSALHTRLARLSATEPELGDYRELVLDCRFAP
Macrophage-stimulating protein receptor, sequence (Q04912 310-1400 limits assumed): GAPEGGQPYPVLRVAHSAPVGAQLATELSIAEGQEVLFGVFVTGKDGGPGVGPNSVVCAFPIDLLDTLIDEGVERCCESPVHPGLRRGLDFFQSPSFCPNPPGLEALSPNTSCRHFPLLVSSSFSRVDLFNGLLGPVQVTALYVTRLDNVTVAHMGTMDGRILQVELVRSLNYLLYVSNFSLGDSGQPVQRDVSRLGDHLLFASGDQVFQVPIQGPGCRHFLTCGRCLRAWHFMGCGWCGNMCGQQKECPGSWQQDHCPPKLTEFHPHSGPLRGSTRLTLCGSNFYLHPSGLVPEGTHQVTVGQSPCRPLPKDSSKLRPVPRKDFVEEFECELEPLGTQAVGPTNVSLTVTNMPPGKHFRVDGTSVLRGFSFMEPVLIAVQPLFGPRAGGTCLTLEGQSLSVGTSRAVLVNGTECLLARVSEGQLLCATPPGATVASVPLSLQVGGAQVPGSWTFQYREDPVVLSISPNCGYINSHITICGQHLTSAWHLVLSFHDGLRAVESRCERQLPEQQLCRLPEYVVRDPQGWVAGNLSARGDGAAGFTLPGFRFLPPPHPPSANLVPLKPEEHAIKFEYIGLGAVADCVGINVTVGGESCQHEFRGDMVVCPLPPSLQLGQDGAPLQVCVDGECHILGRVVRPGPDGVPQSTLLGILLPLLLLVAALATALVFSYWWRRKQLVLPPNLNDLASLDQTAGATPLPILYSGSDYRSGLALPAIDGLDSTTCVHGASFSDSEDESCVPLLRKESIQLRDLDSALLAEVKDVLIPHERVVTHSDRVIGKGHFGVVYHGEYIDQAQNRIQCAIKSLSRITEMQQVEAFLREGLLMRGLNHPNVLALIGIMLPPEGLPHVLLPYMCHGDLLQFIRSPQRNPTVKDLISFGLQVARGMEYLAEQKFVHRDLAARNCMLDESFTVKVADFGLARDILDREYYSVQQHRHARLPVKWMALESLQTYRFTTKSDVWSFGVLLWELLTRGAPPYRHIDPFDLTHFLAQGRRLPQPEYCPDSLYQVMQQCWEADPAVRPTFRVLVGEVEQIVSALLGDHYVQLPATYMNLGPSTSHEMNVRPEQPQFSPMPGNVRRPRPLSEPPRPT

| Kd [1] | Kd [2] | Kd [3] | Kd [4] | Kd [5] | Kd [6] | Kd [7] | Compound |
| --- | --- | --- | --- | --- | --- | --- | --- |
| > 30 µM (inactive) | > 30 µM (inactive) | > 30 µM (inactive) | > 30 µM (inactive) | > 30 µM (inactive) | > 30 µM (inactive) | > 30 µM (inactive) | Cc1nc2cc(-n3ncc(C(=O)c4cc5ccccc5[nH]4)c3N)ccc2[nH]1 [FGFR INHIBITOR DEBIO 1347] |
| > 30 µM (inactive) | > 30 µM (inactive) | > 30 µM (inactive) | > 30 µM (inactive) | > 30 µM (inactive) | 0.038 µM (active) | > 30 µM (inactive) | Cc1cccc(-c2nn3c(c2-c2ccnc4ccc(C(N)=O)cc24)CCC3)n1 [GALUNISERTIB] |
| > 30 µM (inactive) | > 30 µM (inactive) | > 30 µM (inactive) | > 30 µM (inactive) | > 30 µM (inactive) | 0.611 µM (active) | > 30 µM (inactive) | CCn1cc(-c2ccnc3[nH]c(-c4cccc(CN(C)C)c4)cc23)c(-c2ccc(NC(=O)N(C)C)cc2)n1 [GSK-1070916] |
| > 30 µM (inactive) | > 30 µM (inactive) | > 30 µM (inactive) | > 30 µM (inactive) | > 30 µM (inactive) | > 30 µM (inactive) | > 30 µM (inactive) | COc1ccc(S(=O)(=O)N(C(C)=O)c2ccccc2/C=C/c2cc[n+]([O-])cc2)cc1 [HMN-214] |
| > 30 µM (inactive) | > 30 µM (inactive) | > 30 µM (inactive) | > 30 µM (inactive) | > 30 µM (inactive) | 0.199 µM (active) | > 30 µM (inactive) | CNC(=O)c1cccc2cc(Oc3ccnc4cc(OCC5(N)CC5)c(OC)cc34)ccc12 [LUCITANIB] |
| 2.09 µM (active) | > 30 µM (inactive) | > 30 µM (inactive) | 14 µM (active) | 1.99 µM (active) | > 30 µM (inactive) | 10 µM (active) | CNC(=O)c1nn(C)c2c1C(C)(C)Cc1cnc(Nc3ccc(N4CCN(C)CC4)cc3)nc1-2 [MILCICLIB] |
| > 30 µM (inactive) | > 30 µM (inactive) | > 30 µM (inactive) | > 30 µM (inactive) | > 30 µM (inactive) | > 30 µM (inactive) | > 30 µM (inactive) | NC1(c2ccc(-c3nc4ccn5c(=O)[nH]nc5c4cc3-c3ccccc3)cc2)CCC1 [MK-2206] |
| > 30 µM (inactive) | > 30 µM (inactive) | > 30 µM (inactive) | > 30 µM (inactive) | 0.278 µM (active) | > 30 µM (inactive) | > 30 µM (inactive) | CN(C[C@@H]1COCCO1)S(=O)(=O)Nc1ccc2ccc3ncc(-c4cnn(C)c4)cc3c(=O)c2c1 [MK-2461] |
| > 30 µM (inactive) | > 30 µM (inactive) | > 30 µM (inactive) | > 30 µM (inactive) | 0.956 µM (active) | > 30 µM (inactive) | > 30 µM (inactive) | Cn1cc(-c2cnc3ccc4ccc(CS(=O)(=O)NCc5ccccn5)cc4c(=O)c3c2)cn1 [MK-8033] |
| > 30 µM (inactive) | > 30 µM (inactive) | > 30 µM (inactive) | > 30 µM (inactive) | > 30 µM (inactive) | > 30 µM (inactive) | > 30 µM (inactive) | FC(F)(F)c1ccc(/C=C/c2nc(COc3ccc(CCCCn4ccnn4)cc3)co2)cc1 [MUBRITINIB] |
| > 30 µM (inactive) | > 30 µM (inactive) | > 30 µM (inactive) | > 30 µM (inactive) | > 30 µM (inactive) | > 30 µM (inactive) | > 30 µM (inactive) | COc1ncc(-c2ccc3nccc(-c4ccnnc4)c3c2)cc1NS(=O)(=O)c1ccc(F)cc1F [OMIPALISIB] |
| > 30 µM (inactive) | > 30 µM (inactive) | > 30 µM (inactive) | > 30 µM (inactive) | > 30 µM (inactive) | > 30 µM (inactive) | > 30 µM (inactive) | Cc1cnc(NC(=O)Nc2cc(Br)c(C)cc2OC[C@@H]2CNCCO2)cn1 [RABUSERTIB] |
| > 30 µM (inactive) | > 30 µM (inactive) | > 30 µM (inactive) | > 30 µM (inactive) | > 30 µM (inactive) | > 30 µM (inactive) | > 30 µM (inactive) | CO[C@H]1C[C@@H]2CC[C@@H](C)[C@@](O)(O2)C(=O)C(=O)N2CCCC[C@H]2C(=O)O[C@H]([C@H](C)C[C@@H]2CC[C@@H](OP(C)(C)=O)[C@H](OC)C2)CC(=O)[C@H](C)/C=C(\C)[C@@H](O)[C@@H](OC)C(=O)[C@H](C)C[C@H](C)/C=C/C=C/C=C/1C [RIDAFOROLIMUS] |
| > 30 µM (inactive) | > 30 µM (inactive) | > 30 µM (inactive) | > 30 µM (inactive) | > 30 µM (inactive) | > 30 µM (inactive) | > 30 µM (inactive) | N#CC1(c2ccc(NC(=O)c3cccnc3NCc3ccncc3)cc2)CCCC1 [RIVOCERANIB] |
| > 30 µM (inactive) | > 30 µM (inactive) | > 30 µM (inactive) | > 30 µM (inactive) | > 30 µM (inactive) | > 30 µM (inactive) | > 30 µM (inactive) | O=c1[nH]ccc2cc(OC3CCNCC3)ccc12 [SAR-407899 FREE BASE] |

| Compound | Kd [1] | Kd [2] | Kd [3] | Kd [4] | Kd [5] | Kd [6] | Kd [7] |
| --- | --- | --- | --- | --- | --- | --- | --- |
| CC(C)(C)c1nc(-c2cccc(NS(=O)(=O)c3c(F)cccc3F)c2F)c(-c2ccnc(N)n2)s1 [DABRAFENIB] | > 30 µM (inactive) | > 30 µM (inactive) | > 30 µM (inactive) | > 30 µM (inactive) | > 30 µM (inactive) | 0.106 µM (active) | > 30 µM (inactive) |
| O=C(Nc1nc2cccc(-c3ccc(CN4CCS(=O)(=O)CC4)cc3)n2n1)C1CC1 [FILGOTINIB] | > 30 µM (inactive) | > 30 µM (inactive) | > 30 µM (inactive) | > 30 µM (inactive) | > 30 µM (inactive) | > 30 µM (inactive) | > 30 µM (inactive) |
| O=C(Nc1cc(C(F)(F)F)cc(C(F)(F)F)c1)c1cc(Cl)ccc1O [IMD-0354] | > 30 µM (inactive) | > 30 µM (inactive) | > 30 µM (inactive) | > 30 µM (inactive) | > 30 µM (inactive) | > 30 µM (inactive) | 1.46 µM (active) |
| CCOc1cc2ncc(C#N)c(Nc3ccc(F)c(Cl)c3)c2cc1NC(=O)/C=C/CN(C)C [PELITINIB] | > 30 µM (inactive) | > 30 µM (inactive) | > 30 µM (inactive) | 2.28 µM (active) | > 30 µM (inactive) | > 30 µM (inactive) | 0.042 µM (active) |
| CCCCCCCCCCCCCCCCCCOP(=O)([O-])OC1CC[N+](C)(C)CC1 [PERIFOSINE] | > 30 µM (inactive) | > 30 µM (inactive) | > 30 µM (inactive) | > 30 µM (inactive) | > 30 µM (inactive) | > 30 µM (inactive) | > 30 µM (inactive) |
